# Where two headings read alike, the source gives them in different places.
# Experiments:
# protein kinase C = conditions: specifically the (−)-enantiomer; read-out: potency (EC50); cited from earlier work
# [1] = system: squamous cell carcinoma and melanoma; conditions: used topically; cited from earlier work
# PKC [2] = conditions: cited from earlier work
# BDNF = assay: Mouse dosing study: brain BDNF levels; type: in vivo; conditions: mice
# Text: (§1) Mouse studies may be performed using an angiotensin, as described above, in accordance with the protocol described below. The following metrics may be used to evaluate dosing regimens: induction of brain postsynaptic anchoring protein PSD-95, upregulation of BDNF levels in brain, upregulation of HGF levels in brain, minimal downregulation of PKC-ε levels, and elevation of brain and plasma concentrations of the angiotensin. Groups of 2-3 mice may be formed and housed in an approved research animal facility. Water may be given ad libitum. A first study involves three groups of mice with animals in each group dosed weekly for 1, 2, 3, or 6 consecutive weeks. Each group has its own control group containing the same number of mice. For example, mice in the first, second and third groups may receive an intravenous (i.v.) injection of 10 μg/m^2, 15 μg/m^2, and 25 μg/m^2 dose of an angiotensin. For each dose, mice in that group may receive a single injection of the angiotensin weekly for a predetermined number of consecutive weeks. Following dosing, mice are sacrificed, and the blood and brain of each animal is collected for further analysis.
# PSD-95 = assay: Mouse dosing study: PSD-95 levels; type: in vivo, mice; conditions: 25 μg/m^2 i.v. once per week, after three weeks
# Text: as §1
# [3] = design: species or system mice; conditions: mouse, in vivo, iv
# Text: as §1
# PKC [4] = conditions: competes with [3H] phorbol dibutyrate; read-out: Ki for binding to PKC; cited from earlier work
# NCI 60 cell line = NCI 60 cell line screen; cited from earlier work
# [5] = A-ring bryologs, read-out: affinity for PKC
molecule,measurement,setting,value
"CCCCCCCCc1ccc2c3c(c[nH]c13)C[C@@H](CO)NC(=O)[C@H](C(C)C)N2C [octylindolactam V, Octylindolactam V]",EC50,protein kinase C,29 nM
C/C=C(/C)C(=O)O[C@H]1C(C)=C[C@]23C(=O)[C@@H](C=C(CO)[C@@H](O)[C@]12O)[C@H]1[C@@H](C[C@H]3C)C1(C)C [Ingenol-3-angelate],antitumor activity,[1],exhibits antitumor activity
CCCCCCCC(=O)O[C@H]1/C(=C/C(=O)OC)CC2C[C@H](CO)OC(=O)C[C@H](O)C[C@@H]3CCC[C@H](C[C@@H]4CCO[C@H](/C=C/C(C)(C)[C@]1(O)O2)O4)O3 [Analog 1],Ki,"PKC [2]; Table 1 Bryologs, read-out: PKC Affin",0.25 nM
same,affinity for PKC (in words),PKC [2]; compared with Bryostatin-1 and the other bryologs,highest affinity for PKC
CCCCCCCC(=O)OC1C(=CC(=O)OC)CC2CC(CO)OC(=O)CC(O)CCOC(C(C)(C)C)CC3CCOC(C=CC(C)(C)C1(O)O2)O3 (stereo not shown) [bryolog 3],Ki,PKC [2]; [5],6.5 nM
angiotensin,brain BDNF levels,BDNF; 15 μg/m^2 for three consecutive weeks,some increase
same,brain BDNF levels,BDNF; 25 μg/m^2,maximum increase
same,brain BDNF levels,"BDNF; 25 μg/m^2, 3 on/3 off/3 on regimen",remain elevated
same,brain BDNF levels,BDNF; after three consecutive weekly doses at 25 μg/m^2,highest level
same,PSD-95 in brain and blood samples,PSD-95,higher amounts of PSD-95
same,concentration in brain relative to plasma,[3],less than its concentration in plasma
same,crossing of the blood-brain-barrier,[3],crosses the BBB
"CC1=C[C@]23C(=O)[C@@H](C=C(COC(=O)c4ccccc4)[C@@H](O)[C@]2(O)[C@H]1OC(=O)c1ccccc1)[C@H]1[C@@H](C[C@H]3C)C1(C)C [Ingenol 3,20-dibenzoate]",Ki,PKC [4],240 nM
CCCCCCCC(=O)OC1C(=CC(=O)OC)CC2CC(CO)OC(=O)CC(O)CCOC(CCCc3ccc(Br)cc3)CC3CCOC(C=CC(C)(C)C1(O)O2)O3 (stereo not shown) [bryolog 5],Ki,PKC [2]; [5],1.9 nM
CC1=CC[C@H](C)C(C)(C)[C@@H]1/C=C/C(C)=C/CC[C@@]1(CO)[C@H](CCCO)/C(=C(/C)C=O)CC[C@]1(C)O [Iripallidal],GI50 (concentration required to inhibit growth by 50%),NCI 60 cell line,micromolar to nanomolar range
CCCCCCCC(=O)OC1C(=CC(=O)OC)CC2CC(CO)OC(=O)CC(O)CCOC(c3ccccc3)CC3CCOC(C=CC(C)(C)C1(O)O2)O3 (stereo not shown) [bryolog 4],Ki,PKC [2]; [5],2.3 nM
